The test has as its target T1, human GR (Homo sapiens, UniProt P04150).
T1 sequence (P04150 1-777): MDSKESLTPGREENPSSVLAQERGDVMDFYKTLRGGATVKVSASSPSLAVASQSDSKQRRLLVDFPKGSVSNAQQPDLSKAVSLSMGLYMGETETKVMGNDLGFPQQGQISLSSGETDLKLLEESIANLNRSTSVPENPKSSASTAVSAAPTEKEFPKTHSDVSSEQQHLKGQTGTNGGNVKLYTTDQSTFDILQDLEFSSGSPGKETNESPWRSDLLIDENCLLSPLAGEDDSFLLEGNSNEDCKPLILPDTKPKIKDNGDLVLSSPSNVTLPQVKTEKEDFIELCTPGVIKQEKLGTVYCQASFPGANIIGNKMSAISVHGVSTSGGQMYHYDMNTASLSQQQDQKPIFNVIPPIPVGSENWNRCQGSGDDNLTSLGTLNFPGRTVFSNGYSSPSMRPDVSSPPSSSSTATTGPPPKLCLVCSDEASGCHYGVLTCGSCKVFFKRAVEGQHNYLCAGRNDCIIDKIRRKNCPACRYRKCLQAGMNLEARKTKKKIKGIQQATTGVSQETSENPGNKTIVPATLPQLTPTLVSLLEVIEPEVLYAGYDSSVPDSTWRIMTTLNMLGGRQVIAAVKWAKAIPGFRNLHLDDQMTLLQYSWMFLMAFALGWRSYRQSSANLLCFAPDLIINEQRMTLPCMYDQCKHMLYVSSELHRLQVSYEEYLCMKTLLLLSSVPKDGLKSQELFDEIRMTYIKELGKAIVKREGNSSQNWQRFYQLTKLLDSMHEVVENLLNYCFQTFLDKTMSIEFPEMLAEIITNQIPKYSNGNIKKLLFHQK
As to the kind of experiment: Transrepression Assay (GITAR), TNFα-β-lactamase reporter in U937 cells. The test is classed as cell-based. Set-up: U937 cells contain an endogenous glucocorticoid receptor (GR); endogenous in cells; host or cells: U937 cells stably transfected with the TNF-alpha promoter/beta-lactamase reporter. The note with it: for GITAR > GRAMM % SEP: GITAR Emax minus GRAMMER Emax; for EC50: U937 cells, inflection point, read-out: Transrepression U937 Cells GITAR IP. In a few lines:
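Repression normalised to 100 nM dexamethasone (100%), measured with CCF2-AM β-lactamase substrate after 70–90 min at room temperature. Stably transfected U937 cells were exposed to compound 30–45 min, then to PMA (5 ng/ml final) plus LPS (100 ng/ml final) overnight (~18 hr), 37° C.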

The mark [1] stands for this setting: U-937, U937 cells, maximum activity, read-out: Transrepression U937 Cells GITAR Emax.
The mark [2] stands for this setting: U-937, activity repressed by 100 nM dexamethasone alone set as 100%, read-out: maximal activity in the transrepression (GITAR) assay.

Where two headings read alike, the source gives them in different places.

`C[C@]12Cc3cnn(-c4ccc(F)cc4)c3C=C1CC[C@@H]2CN(CC(O)C(F)(F)F)S(=O)(=O)Cc1ccccc1C(N)=O` (stereo partly drawn) [Example 167, 2-({[{[(4αR,5S)-1-(4-fluorophenyl)-4α-methyl-1,4,4α,5,6,7-hexahydrocyclopenta[f]indazol-5-yl]methyl}(3,3,3-trifluoro-2-hydroxypropyl)amino]sulfonyl}methyl) benzamide]: the “GITAR > GRAMM % SEP” value was 12.5% and the EC50 came to 0.159 µM. The Emax under setting [1] was 87.4%. In addition, under setting [2], the Emax was greater than 5%.

Take `Cc1noc(C)c1S(=O)(=O)N(C[C@H]1CCC2=Cc3c(cnn3-c3ccc(F)cc3)C[C@@]21C)C[C@@H](C)O` [Example 168, N-{[(4αR,5S)-1-(4-fluorophenyl)-4α-methyl-1,4,4α,5,6,7-hexahydrocyclopenta[f]indazol-5-yl]methyl}-N-[(2R)-2-hydroxypropyl]-3,5-dimethylisoxazole-4-sulfonamide]: the “GITAR > GRAMM % SEP” value is 35.0% and the EC50 came to 0.119 µM. For the same compound, under setting [1], the Emax came to 83.1%. Also, the Emax under setting [2] was greater than 5%.

Values taken from patent US8299048B2, “Hexahydrocyclopentyl[f]indazole sulfonamides and derivatives thereof as selective glucocorticoid receptor modulators” (Merck Sharp & Dohme Corp., priority 2008, dated 2012).
